{"source": "paper PMC8649774", "about": "“A New Class of Cell Wall-Recycling L,D-Carboxypeptidase Determines β-Lactam Susceptibility and Morphogenesis in Acinetobacter baumannii” (mBio, 2021)", "target": "T1, ElsL (ElsLHis) (Acinetobacter baumannii, UniProt A0ABX6CN83)", "T1 construct": "gene FQU82_03167; leaderless cytoplasmic YkuD-domain protein, C-terminal 6xHis (pET28b), expressed in E. coli BL21(DE3), Ni-NTA purified with TCEP", "test": "UPLC-MS of reaction products", "assay_type": "biochemical", "settings": "100 mM Tris-HCl, 37 °C, 2 h, 10 ng enzyme; M4 purified from Caulobacter crescentus sacculi"}
{"compound": "CC(=O)N[C@H]1[C@H](O[C@H]2[C@H](O[C@H](C)C(=O)N[C@@H](C)C(=O)N[C@H](CCC(=O)N[C@@H](CCC[C@@H](N)C(=O)O)C(=O)N[C@H](C)C(=O)O)C(=O)O)[C@@H](NC(C)=O)C(O)O[C@@H]2CO)O[C@H](CO)[C@@H](O)[C@@H]1O", "note": "(stereo partly shown) [M4, murotetrapeptide]", "values": [{"measurement": "UPLC-MS of reaction products", "result": "ElsL completely cleaved the M4 substrate to the disaccharide tripeptide (M3)"}]}
